Measured values: patent publication US5789434A, “Derivatives of substituted 4-biarylbutyric acid as matrix metalloprotease inhibitors” (priority 1995, dated 1998)
Structures can show the parent of a compound that is named as a salt. Where two headings read alike, the source gives them in different places.

Experiments:
MMP-3 = target: T1, MMP-3 (Homo sapiens, UniProt P08254); experiment: Primary Thiopeptilide MMP-3 Inhibition Assay; assay type: biochemical; settings: for IC50: pH 6.5, 13 nM stromelysin, x (n) = average of n determinations, read-out: MMP-3 Thiopep. IC50; for inhibition at 5 µM: read-out: MMP-3 Thiopep. % inhibition
T1 construct: Truncated Prostromelysin-257 was expressed in a soluble form in E.coli; made in house; host or cells: E. coli

MMP-9 = target: T2, MMP-9 (Homo sapiens, UniProt P14780); experiment: Thiopeptilide MMP-9 Inhibition Assay; assay type: biochemical; settings: for IC50: pH 6.5, x (n) = average of n determinations, read-out: MMP-9: Thiopep. IC50; for inhibition at 5 µM: read-out: MMP-9: Thiopep. % inhibition
T2 construct: from tissue; host or cells: human polymorphonuclear leukocytes (PMN) from whole blood (New York Blood Center), PMA-stimulated supernatant
T2 sequence (P14780 107-707 limits assumed): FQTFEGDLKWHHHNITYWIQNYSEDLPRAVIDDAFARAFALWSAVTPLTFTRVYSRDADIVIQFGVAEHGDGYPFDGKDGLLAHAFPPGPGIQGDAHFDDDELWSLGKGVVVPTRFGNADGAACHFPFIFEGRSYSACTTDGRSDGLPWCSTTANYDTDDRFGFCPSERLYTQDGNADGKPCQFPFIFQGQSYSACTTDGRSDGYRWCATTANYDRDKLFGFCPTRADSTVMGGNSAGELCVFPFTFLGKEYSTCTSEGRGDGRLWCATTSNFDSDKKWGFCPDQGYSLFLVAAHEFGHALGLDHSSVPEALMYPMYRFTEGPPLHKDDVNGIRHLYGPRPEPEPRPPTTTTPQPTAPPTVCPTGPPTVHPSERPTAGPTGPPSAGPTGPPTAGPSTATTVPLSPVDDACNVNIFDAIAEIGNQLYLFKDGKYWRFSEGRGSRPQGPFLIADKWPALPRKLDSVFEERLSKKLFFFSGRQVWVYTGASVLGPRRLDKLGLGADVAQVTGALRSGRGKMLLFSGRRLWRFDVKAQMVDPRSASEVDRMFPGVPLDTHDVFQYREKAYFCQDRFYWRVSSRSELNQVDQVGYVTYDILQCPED

T1 sequence (P08254 100-274 limits assumed): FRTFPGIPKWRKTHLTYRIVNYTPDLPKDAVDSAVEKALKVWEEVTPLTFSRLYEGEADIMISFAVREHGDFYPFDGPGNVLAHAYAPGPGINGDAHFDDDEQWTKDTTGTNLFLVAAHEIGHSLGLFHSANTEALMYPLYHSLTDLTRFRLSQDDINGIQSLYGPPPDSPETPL

| IC50 (MMP-3) | IC50 (MMP-9) | inhibition at 5 µM (MMP-3) | inhibition at 5 µM (MMP-9; at 5 μM) | Structure (SMILES) | inhibition at 5 µM (MMP-9) |
| --- | --- | --- | --- | --- | --- |
| 950 nM | 2000 nM | – | – | O=C(O)CC(CSc1cccs1)C(=O)c1ccc(-c2ccc(Cl)cc2)cc1 (stereo not drawn) [Example 255, [1,1'-Biphenyl]-4-butanoic acid, 4'-chloro-γ-oxo-β-[(2-thienylthio)methyl]-] | – |
| 600 nM | 3000 nM | – | – | CC(C)(C)C(=O)SCC(CC(=O)O)C(=O)c1ccc(-c2ccc(Cl)cc2)cc1 (stereo not drawn) [Example 256, [1,1'-Biphenyl]-4-butanoic acid, 4'-chloro-β-[[(2,2-dimethyl-1-oxopropyl)thio]methyl]-γ-oxo-] | – |
| 800 nM | 2100 nM | – | – | O=C(O)CC(CSc1ccccc1)C(=O)c1ccc(-c2ccc(Cl)cc2)cc1 (stereo not drawn) [Example 257, [1,1'-Biphenyl]-4-butanoic acid, 4'-chloro-γ-oxo-β-[(phenylthio)methyl]-] | – |
| 820 nM | 2100 nM | – | – | CC(=O)SCC(CC(=O)O)C(=O)c1ccc(-c2ccc(Cl)cc2)cc1 (stereo not drawn) [Example 258, [1,1'-Biphenyl]-4-butanoic acid, β-[(acetylthio)methyl]-4'-chloro-γ-oxo-, reference compound] | – |
| – | – | 33% | 21% | CN(C)CCC(CC(=O)c1ccc(-c2ccc(Cl)cc2)cc1)C(=O)O (stereo not drawn) [Example 263, [1,1'-Biphenyl]-4-butanoic acid, 4'-chloro-α-[2-(dimethylamino)ethyl]-γ-oxo-, hydrochloride] | – |
| 2900 nM | – | – | 42% | CCN(CC)CCCC(CC(=O)c1ccc(-c2ccc(Cl)cc2)cc1)C(=O)O (stereo not drawn) [Example 265, [1,1'-Biphenyl]-4-butanoic acid, 4'-chloro-α-[3-(diethylamino)propyl]-γ-oxo-, trifluoroacetate] | – |
| 250 nM | 650 nM | – | – | CSCCCC(CC(=O)c1ccc(-c2ccc(Cl)cc2)cc1)C(=O)O (stereo not drawn) [Example 266, [1,1'-Biphenyl]-4-butanoic acid, 4'-chloro-α-[3-(methylthio)propyl]-γ-oxo-] | – |
| – | – | 2% | 0% | CC(C)(CC(=O)c1ccc(-c2ccc(Cl)cc2)cc1)C(=O)O [Example 282, [1,1'-Biphenyl]-4-butanoic acid, 4'-chloro-α,α-dimethyl-γ-oxo-] | – |
| – | – | 37% | 41% | CC(CC(=O)O)CC(=O)c1ccc(-c2ccc(Cl)cc2)cc1 (stereo not drawn) [Example 332, [1,1'-Biphenyl]-4-pentanoic acid, 4'-chloro-β-methyl-δ-oxo-, reference compound] | – |
| – | – | 62% | 25% | O=C(O)CCCC(=O)c1ccc(-c2ccc(Cl)cc2)cc1 [Example 333, [1,1'-Biphenyl]-4-pentanoic acid, 4'-chloro-δ-oxo-, reference compound] | – |
| – | 6000 nM | 42% | – | CC(C)(CC(=O)O)CC(=O)c1ccc(-c2ccc(Cl)cc2)cc1 [Example 334, [1,1'-Biphenyl]-4-pentanoic acid, 4'-chloro-β,β-dimethyl-δ-oxo-] | – |
| – | 6000 nM | 55% | – | CCC(C)(CC(=O)O)CC(=O)c1ccc(-c2ccc(Cl)cc2)cc1 (stereo not drawn) [Example 335, [1,1'-Biphenyl]-4-pentanoic acid, 4'-chloro-β-ethyl-β-methyl-δ-oxo-] | – |
| – | – | 20% | 2% | CC(C)(CCC(=O)c1ccc(-c2ccc(Cl)cc2)cc1)C(=O)O [Example 337, [1,1'-Biphenyl]-4-pentanoic acid, 4'-chloro-α,α-dimethyl-δ-oxo-] | – |
| – | – | 24% | 32% | CC(C)CC(CCC(=O)c1ccc(-c2ccc(Cl)cc2)cc1)C(=O)O (stereo not drawn) [Example 338, [1,1'-Biphenyl]-4-pentanoic acid, 4'-chloro-α-(2-methylpropyl)-δ-oxo-] | – |
| – | – | 14% | 21% | O=C(O)CCC1(C(=O)c2ccc(-c3ccc(Cl)cc3)cc2)CCCC1 [Example 340, Cyclopentanepropanoic acid, 1-[(4'-chloro[1,1'-biphenyl]-4-yl)carbonyl]-] | – |
| 360 nM | 700 nM | – | – | CC(C)CC(CCC(=O)O)C(=O)c1ccc(-c2ccc(Cl)cc2)cc1 (stereo not shown) [Example 342] | – |
| 500 nM | 680 nM | – | – | O=C(O)CCC(CCCc1ccccc1)C(=O)c1ccc(-c2ccc(Cl)cc2)cc1 (stereo not shown) [Example 343, [1,1'-Biphenyl]-4-pentanoic acid, 4'-chloro-δ-oxo-γ-(phenylpropyl)-] | – |
| 6000 nM | – | – | 34% | CNC(=O)[C@@H]1CCCN1C(=O)C(CC(=O)c1ccc(-c2ccc(Cl)cc2)cc1)CC(C)C (stereo partly drawn) [Example 346, 2-Pyrrolidinecarboxamide, 1-[2-[2-(4'-chloro[1,1'-biphenyl]-4-yl)-2-oxoethyl]-4-metyl-1-oxopentyl]-N-methyl-, (2S)-] | – |

The remaining lines, values behind:

| Structure (SMILES) | IC50 (MMP-3) | IC50 (MMP-9) | inhibition at 5 µM (MMP-3) | inhibition at 5 µM (MMP-9; at 5 μM) | inhibition at 5 µM (MMP-9) |
| --- | --- | --- | --- | --- | --- |
| O=C(CC(CSc1ccccc1O)C(=O)O)c1ccc(-c2ccc(Cl)cc2)cc1 (stereo not drawn) [Example 240, [1,1'-Biphenyl]-4-butanoic acid, 4'-chloro-α-[[(2-hydroxyphenyl)thio]methyl]-γ-oxo-] | 96 nM | 300 nM | – | – | – |
| O=C(CC(CSc1cccc2cccnc12)C(=O)O)c1ccc(-c2ccc(Cl)cc2)cc1 (stereo not drawn) [Example 241, [1,1'-Biphenyl]-4-butanoic acid, 4'-chloro-γ-oxo-α-[(8-quinolinylthio)methyl]-] | 195 nM | 340 nM | – | – | – |
| O=C(CC(CSc1cccc(Cl)c1)C(=O)O)c1ccc(-c2ccc(Cl)cc2)cc1 (stereo not drawn) [Example 242, [1,1'-Biphenyl]-4-butanoic acid, 4'-chloro-α-[[(3-chlorophenyl)thio]methyl]-γ-oxo-] | 490 nM | 1300 nM | – | – | – |
| O=C(CC(CSc1cccc(F)c1)C(=O)O)c1ccc(-c2ccc(Cl)cc2)cc1 (stereo not drawn) [Example 243, [1,1'-Biphenyl]-4-butanoic acid, 4'-chloro-α[[(3-fluorophenyl)thio]methyl]-γ-oxo-] | 360 nM | 850 nM | – | – | – |
| CNC(=O)c1ccccc1SCC(CC(=O)c1ccc(-c2ccc(Cl)cc2)cc1)C(=O)O (stereo not drawn) [Example 250, [1,1'-Biphenyl]-4-butanoic acid, 4'-chloro-α-[[[2-[(methylamino)carbonyl]phenyl]thio]methyl]-γ-oxo-] | 125 nM | 800 nM | – | – | – |
| O=C(CC(Sc1ccccc1)C(=O)O)c1ccc(-c2ccc(Cl)cc2)cc1 (stereo not drawn) [Example 251, [1,1'-Biphenyl]-4-butanoic acid, 4'-chloro-γ-oxo-α-(phenylthio)-] | 640 nM | 7500 nM | – | – | – |
| O=C(CC(SCc1ccccc1)C(=O)O)c1ccc(-c2ccc(Cl)cc2)cc1 (stereo not drawn) [Example 252, [1,1'-Biphenyl]-4-butanoic acid, 4'-chloro-γ-oxo-α-[(phenylmethyl)thio]-] | 293 nM | 2900 nM | – | – | – |
| CC(=O)SCC(CC(=O)c1ccc(C)cc1)C(=O)O (stereo not drawn) [Example 253, Benzenebutanoic acid, α-[(acetylthio)methyl]-4-methyl-γ-oxo-, reference compound] | – | – | 0% | 21% | – |
| O=C(CC(C(=O)O)N1CCSCC1)c1ccc(-c2ccc(Cl)cc2)cc1 (stereo not shown) [Example 259] | 2600 nM | – | – | 37% | – |
| O=C(CC(NC(c1ccccc1)c1ccccc1)C(=O)O)c1ccc(-c2ccc(Cl)cc2)cc1 (stereo not drawn) [Example 260, [1,1'-Biphenyl]-4-butanoic acid, 4'-chloro-α-[(diphenylmethyl)amino]-γ-oxo-, hydrochloride] | 520 nM | – | – | – | 16% |
| O=C(CC(CCCN1C(=O)c2ccccc2C1=O)C(=O)O)c1ccc(-c2ccc(Cl)cc2)cc1 (stereo not drawn) [Example 262, 2H-Isoindole-2-pentanoic acid, α-[2-(4'-chloro[1,1'-biphenyl]-4-yl)-2-oxoethyl]-1,3-dihydro-1,3-dioxo-] | 95 nM | 76 nM | – | – | – |
| O=C(O)c1ccccc1C(=O)c1ccc(-c2ccc(Cl)cc2)cc1 [Example 287, Benzoic acid, 2-[(4'-chloro[1,1'-biphenyl]-4-yl)carbonyl]-] | – | – | 26% | 3% | – |
| O=C(O)C1C2C=CC(CC2)C1C(=O)c1ccc(-c2ccc(Cl)cc2)cc1 (stereo not shown) [Example 330] | – | – | 9% | 16% | – |
| O=C(O)CC1(CC(=O)c2ccc(-c3ccc(Cl)cc3)cc2)CCCC1 [Example 336, Cyclopentaneactic acid, 1-[2-(4'-chloro[1,1'-biphenyl]-4-yl)-2-oxoethyl]-] | 1400 nM | 600 nM | – | – | – |
| O=C(O)CC1(CC(=O)c2ccc(-c3ccc(Cl)cc3)cc2)CCCCC1 [Example 339, Cyclohexaneacetic acid, 1-[2-(4'-chloro[1,1'-biphenyl]-4-yl)-2-oxoethyl]-] | 1700 nM | 1500 nM | – | – | – |
| O=C(CCC(CCCc1ccccc1)C(=O)O)c1ccc(-c2ccc(Cl)cc2)cc1 (stereo not drawn) [Example 341, [1,1'-Biphenyl]-4-pentanoic acid, 4'-chloro-δ-oxo-α-(3-phenylpropyl)-] | 2400 nM | 3800 nM | – | – | – |
| O=C(CC(CCCc1ccccc1)c1nnn[nH]1)c1ccc(-c2ccc(Br)cc2)cc1 (stereo not shown) [Example 344, 1-Hexanone, 1-(4'-bromo[1,1'-biphenyl]-4-yl)-6-phenyl-3-(1H-tetrazol-5-yl)-] | – | – | 11% | 14% | – |
| O=C(CC(CCCc1ccccc1)P(=O)(O)O)c1ccc(-c2ccc(Br)cc2)cc1 (stereo not shown) [Example 345, Phosphonic acid, [1-[2-(4'-bromo[1,1'-biphenyl]-4-yl)-2-oxoethyl]-4-phenylbutyl]-] | 5000 nM | – | – | 30% | – |
| Cc1nc(-c2ccc(C(=O)CC(CC(C)C)C(=O)O)cc2)co1 (stereo not drawn) [Example 347, Benzenebutanoic acid, 4-(2-methyl-4-oxazolyl)-α-(2-methylpropyl)-γ-oxo-] | – | – | 12% | 0% | – |
| Cc1nc(-c2ccc(C(=O)CC(CC(C)C)C(=O)O)cc2)cs1 (stereo not drawn) [Example 348, Benzenebutanoic acid, α-(2-methylpropyl)-4-(2-methyl-4-thiazolyl)γ-oxo-] | – | – | 31% | 36% | – |
